Patent US9493466B2, “Treatment of cancer with TOR kinase inhibitors” (Signal Pharmaceuticals, LLC, priority 2011, dated 2016)

Legend:
HCC70 = assay: Growth inhibition assay for breast cancer; format: cell-based; settings: HCC70 (Basal, TN), 96 hours
Source text: (§1) Growth Inhibition Assay for Breast Cancer (BC) (Compound 1). All breast cancer cell lines were maintained and tested in appropriate culture media. The seeding density for each cell line was optimized to ensure assay linearity in 384-well plates.
(§2) Increasing concentrations of Compound 1 were spotted via an acoustic dispenser (EDC ATS-100) into an empty 384-well plate. Compound 1 was spotted in a 10-point serial dilution fashion (3-fold dilution) in duplicate within the plate. The dimethyl sulfoxide (DMSO) concentration was kept constant for a final assay concentration of 0.1% DMSO. Plates were replicated for use against different cell lines and testing periods. After compound plate replication, all plates were sealed (Agilent ThermoLoc) and stored at −20° C. for up to 1 month. When ready for testing, plates were removed from the freezer, thawed, and unsealed just prior to the addition of the test cell.
(§3) Prior to testing, cells were grown and expanded in culture flasks to provide sufficient amounts of starting material. Cells were then diluted to their desired densities and added directly to the Compound 1-spotted 384-well plates. Cells were allowed to grow for 96 hours at 37° C./5% CO2. At the time of setup (t0), initial cell number was assessed via a viability assay (Cell Titer-Glo) and read for luminescence. After 96 hours, cell viability of Compound 1-treated cells was assessed via Cell Titer-Glo and read for luminescence.
(§4) Cell lines were assayed for growth inhibition by Compound 1 for at least two independent tests. All data was normalized and represented as a percentage of the DMSO-treated control cells. […] The potency of Compound 1 in different subtypes of breast cancer cell lines is shown in FIG. 7A, while the correlation of Compound 1 sensitivity to ER, HER, PIK3CA, and TP53 status is shown in FIG. 7B.

UACC-812 = assay: Growth inhibition assay for breast cancer; format: cell-based; settings: UACC-812 (Luminal, Her2+), 96 hours
Source text: as §1, §2, §3, §4

MCF7 = assay: Growth inhibition assay for breast cancer; format: cell-based; settings: MCF7 (Luminal, ER+), 96 hours
Source text: as §1, §2, §3, §4

CAL-120 = assay: Growth inhibition assay for breast cancer; format: cell-based; settings: CAL-120 (Basal, TN), 96 hours
Source text: as §1, §2, §3, §4

HS578T = assay: Growth inhibition assay for breast cancer; format: cell-based; settings: HS578T (Basal, TN), 96 hours
Source text: as §1, §2, §3, §4

CAL-85-1 = assay: Growth inhibition assay for breast cancer; format: cell-based; settings: CAL-85-1 (Basal, TN), 96 hours
Source text: as §1, §2, §3, §4

EFM-19 = assay: Growth inhibition assay for breast cancer; format: cell-based; settings: EFM-19 (Luminal, ER+), 96 hours
Source text: as §1, §2, §3, §4

MDA-MB-231 = assay: Growth inhibition assay for breast cancer; format: cell-based; settings: MDA-MB-231 (Basal, TN), 96 hours
Source text: as §1, §2, §3, §4

DU4475 = assay: Growth inhibition assay for breast cancer; format: cell-based; settings: DU4475 (Basal, TN), 96 hours
Source text: as §1, §2, §3, §4

HCC1187 = assay: Growth inhibition assay for breast cancer; format: cell-based; settings: HCC1187 (Basal, TN), 96 hours
Source text: as §1, §2, §3, §4

MCF10A = assay: Growth inhibition assay for breast cancer; format: cell-based; settings: MCF10A (Basal, TN), 96 hours
Source text: as §1, §2, §3, §4

HCC1143 = assay: Growth inhibition assay for breast cancer; format: cell-based; settings: HCC1143 (Basal, TN), 96 hours
Source text: as §1, §2, §3, §4

HCC1954 = assay: Growth inhibition assay for breast cancer; format: cell-based; settings: HCC1954 (Basal, Her2+), 96 hours
Source text: as §1, §2, §3, §4

MDA-MB-435 = assay: Growth inhibition assay for breast cancer; format: cell-based; settings: MDA-MB-435 (Basal, TN), 96 hours
Source text: as §1, §2, §3, §4

EFM-192A = assay: Growth inhibition assay for breast cancer; format: cell-based; settings: EFM-192A (Luminal, Her2+), 96 hours
Source text: as §1, §2, §3, §4

ZR-75-30 = assay: Growth inhibition assay for breast cancer; format: cell-based; settings: ZR-75-30 (Luminal, Her2+), 96 hours
Source text: as §1, §2, §3, §4

MDA-MB-453 = assay: Growth inhibition assay for breast cancer; format: cell-based; settings: MDA-MB-453 (Luminal, Her2+), 96 hours
Source text: as §1, §2, §3, §4

[1] = test system: advanced solid tumors, non-Hodgkin lymphoma or multiple myeloma; assay: Phase 1/2 study Part A: tumor response; format: in vivo, human
Source text: Subjects will be evaluated for efficacy every 2 cycles through cycle 6 and every 3 cycles thereafter. The primary efficacy variable is response. Tumor assessments, including imaging (CT, MRI and/or PET) of the chest and abdomen and other sites as appropriate, will be performed during Screening. Subjects with brain lesions will also have brain scans at Screening and during follow-up tumor assessments. After Screening, tumor assessments (for all tumors except multiple myeloma) will be performed on completion of Cycles 2, 4 and 6 (i.e., on Cycles 3, 5 and 7/Day 1±7 days) and then every 3 months thereafter (e.g., Cycle 10 and 13/Day 1±7 days). Tumor assessment (for multiple myeloma and only NHL/DLBCL with known or suspected marrow involvement) (bone marrow aspiration and biopsy, with PD biomarker analysis, cytogenetic analysis if abnormally present at Screening) will be performed on completion of Cycles 4, 8, 12 and 16 only (i.e., on Cycles 5, 9, 13 and 17/Day 1±7 days). Cytogenetics need not be repeated if normal at Screening. Tumor response will be based on Response Evaluation Criteria in Solid Tumors (RECIST 1.1), International Workshop Criteria (IWC) for NHL/DLBCL or International Uniform Response Criteria (IURC) for Multiple Myeloma, and RANO for GBM, using the post resection MRI scan as the baseline. Given the difficulty in assessing tumor response following salvage surgery, the primary efficacy endpoint for GBM will be the proportion of subjects progression-free at 6 months from Day 1 relative to efficacy evaluable subjects in the GBM type. Subjects will be evaluated for tumor response on completion of Cycle 2, 4, 6, and so on. A descriptive analysis of evidence of anti-tumor activity will be provided based on clinical and radiographic assessments by the investigator, which includes assessment of target lesion, non-target lesion, new lesion and overall response.
The efficacy variable of focus for Part A will be best overall response. Other preliminary efficacy variables will be summarized using frequency tabulations for categorical variables or descriptive statistics for continuous variables.
Part A: Accelerated Dose Escalation Results.

[2] = ER+/Her2− breast cancer subject

`CO[C@H]1CC[C@H](N2C(=O)CNc3ncc(-c4ccc(C(C)(C)O)nc4)nc32)CC1` [Compound 1, 7-(6-(2-hydroxypropan-2-yl)pyridin-3-yl)-1-((1r,4r)-4-methoxycyclohexyl)-3,4-dihydropyrazino-[2,3-b]pyrazin-2(1H)-one] gave a GI50 (HCC70) of 172 nM, a GI50 (UACC-812) of 47.8 nM and a GI50 (MCF7) of 181 nM. For the same compound, the GI50 (CAL-120) was 700 nM, the GI50 (HS578T) was 343 nM and the GI50 (CAL-85-1) was 253 nM. It also gave a GI50 (EFM-19) of 57.2 nM, a GI50 (MDA-MB-231) of 710 nM and a GI50 (DU4475) of 1240 nM. The GI50 (HCC1187) was 567 nM, the GI50 (MCF10A) was 147 nM and the GI50 (HCC1143) was 343 nM. It also gave a GI50 (HCC1954) of 197 nM, a GI50 (MDA-MB-435) of 222 nM and a GI50 (EFM-192A) of 192 nM. For the same compound, the GI50 (ZR-75-30) was 63.4 nM, the GI50 (MDA-MB-453) was 143 nM and the “regression of target lesions” value ([1]; 1 breast cancer subject, FIG. 27) was “greater than 30%”. The “duration of Partial Response, first restaging scan to last scan” value [1, 2] was 220 days, the “duration of partial response, first restaging scan to last dose” value [1, 2] was 271 days and the “time to progression, first dose to last dose” value [1, 2] was 328 days. The “time to progression, first dose to last scan” value [1, 2] was 277 days, the “maximum reduction in target lesions” value ([1]; ER+/Her2− breast cancer subject, after 10 cycles) was 50% and the “reduction in target lesions” value ([1]; ER+/Her2− breast cancer subject, first restaging after 2 cycles) was 30%. The “longest duration of SD” value ([1]; Part A) was 24 weeks, the “subjects with target lesion responses in the stable range” value ([1]; Part A, FIG. 28) was “Fifteen subjects” and the “subjects with Stable Disease at first restaging” value ([1]; Part A, after 2 cycles) was “Eight subjects”. The “subjects with PR (best overall response)” value ([1]; Part A, breast cancer, dose escalated from 30 to 45 mg, more than 11 cycles) was “One subject”.
